Patent EP4803511A1, “SMALL MOLECULE COMPOUND HAVING SULFONIC ACID OR SULFINIC ACID LACTONE STRUCTURE, COMPOSITION AND USE THEREOF” (Hangzhou Phecdamed Co., Ltd., priority 2023, dated 2025)

How the values were obtained:
IL-8 = IL-8 gene expression in HaCaT after UVB radiation (q-PCR); format: cell-based, human; conditions: UVB 80 mJ/cm^2, 24 hrs, dose-dependent
Excerpt: (§1) In the following Test Examples 6-1 and 6-2, using immortalized keratinocytes (HaCaT) and UVB to establish a model, after the compound to be test was applied to HaCaT, the expression levels of TNF-α, IL-8, IL-1β and EP2 were detected; using immortalized keratinocytes (HaCaT) and capsaicin to establish a model, after the compound to be test was applied to HaCaT, the expression level of TRPV1 was detected, so as to evaluate the soothing effect of the test substance from multiple dimensions.
• 1) Cell inoculation: HaCaT cells were inoculated into a 6-well plate at 6×10^5/well, cultured in an incubator (37°C, 5% CO2) for 12 hrs, and a normal control group (0 mJ/cm^2 + vehicle control), a model control group (80 mJ/cm^2 + vehicle control), a low concentration group (80 mJ/cm^2 + low concentration compound), a medium concentration group (80 mJ/cm^2 + medium concentration compound), and a high concentration group (80 mJ/cm^2 + high concentration compounds) were respectively provided. • 2) UVB modeling: The HaCaT cells were washed 3 times with D'Hanks before UVB radiation, 1 mL of D'Hanks was added into the wells, to make the cells to be immersed, and the control group was coated with tinfoil and placed in the dark. […]

[1] = tested on: wild-type AB strain zebrafish; assay: Zebrafish tail amputation model, inflammatory repair efficacy (inflammatory cells at the broken tail); format: in vivo; conditions: I-8 at 1, 3, and 9 µg/mL, 48 hrs; compared with the modeling group, statistical significance
Method: (§2) Experimental animal: Healthy wild-type AB strain zebrafish at 3 dpf (days post fertilization)
Evaluation of wound repair efficacy: Healthy AB strain zebrafish were taken as experimental animal, and randomly divided into blank control group, modeling group, positive control group, and sample group. The zebrafish in the blank control group were treated with culture water; the zebrafish in the modeling group were treated with culture water after cutting the caudal fin; the zebrafish in the positive control group and sample group were treated with 600 µg/mL hyaluronic acid and I-8 with different concentrations (1, 3, 9 µg/mL) respectively after cutting the caudal fin. The larva fish in above groups were placed in a constant temperature incubator at 28.5 °C and kept in continuous darkness for 48 hrs, with the culture medium changed once every 24 hrs. […] The data were statistically analyzed using GraphPad software.
Evaluation of inflammatory repair efficacy: As described above, the larva fish in each group were placed in a constant temperature incubator at 28.5 °C and kept in continuous darkness for 48 hrs. Inflammatory cells in the fish body were labeled with neutral red, and the number of inflammatory cells at the broken tail was counted. The data were statistically analyzed using GraphPad software.

[2] = tested on: wild-type AB strain zebrafish; assay: Zebrafish tail amputation model, wound repair efficacy (caudal fin area); format: in vivo; conditions: I-8 at 1, 3, and 9 µg/mL, 48 hrs; compared with the modeling group, statistical significance
Method: as §2
Evaluation of wound repair efficacy: Healthy AB strain zebrafish were taken as experimental animal, and randomly divided into blank control group, modeling group, positive control group, and sample group. The zebrafish in the blank control group were treated with culture water; the zebrafish in the modeling group were treated with culture water after cutting the caudal fin; the zebrafish in the positive control group and sample group were treated with 600 µg/mL hyaluronic acid and I-8 with different concentrations (1, 3, 9 µg/mL) respectively after cutting the caudal fin. The larva fish in above groups were placed in a constant temperature incubator at 28.5 °C and kept in continuous darkness for 48 hrs, with the culture medium changed once every 24 hrs. Image-Pro Plus software was used to calculate the area of the caudal fin of each group of zebrafish. The data were statistically analyzed using GraphPad software.

TRPV1 = TRPV1 gene expression in HaCaT after capsaicin stimulation (q-PCR); format: cell-based, human; conditions: 15 µM capsaicin, dose-dependent
Excerpt: as §1
• 1) Cell inoculation: HaCaT cells were inoculated into a 6-well plate at 6 × 10^5/well, cultured in an incubator (37 °C, 5% CO2) for 12 hrs, and a normal control group (0 µM capsaicin + vehicle control), a model control group […] concentration group (15 µM capsaicin + low concentration compound), a medium concentration group (15 µM capsaicin + medium concentration compound), and a high concentration group (15 µM capsaicin + high concentration compound) were respectively provided. • 2) Induction and administration: The culture solution in the 6-well plate was discarded and the administration operation was carried out. The culture solution containing the test substance and the capsaicin stock solution was added according to the above drug group, and 1 mL was added to each well. […]

LAMA5 = assay: LN-5 gene expression in HaCaT human immortalized keratinocytes; format: cell-based; conditions: 24 hrs, dose-dependent
Excerpt: Skin fragility is partly attributed to changes in hemidesmosomes and the expression downregulation of various collagen proteins (Collagen I, III, IV, VII) or laminins (such as LN-5) at the dermal-epidermal junction. LN-5 has been proven to be a component of anchoring fibers in the basement membrane of the skin, cornea, conjunctiva, and other tissues. LN-5 participates in cell-cell interactions through the mediation of integrins and proteoglycans, thereby playing a crucial role in cell adhesion, growth, migration, and differentiation. The appearance of wrinkles is closely related to the normal synthesis and expression of collagen and laminins. Therefore, the increase of the above collagen content and LN-5 can achieve a certain role in resisting wrinkles, and plays an important role in the aging process of the skin. Therefore, the anti-wrinkle effect of the compound to be tested was evaluated by detecting the level of Collage I protein of […] by ELISA, and detecting the transcription levels of epidermal cells (keratinocytes) III, IV, VII and LN -5 by Real-Time PCR. The following Test Examples 8-1 and 8-2 evaluated the anti-wrinkle efficacy of compounds using HaCaT human immortalized keratinocytes and HSF human skin fibroblasts. […]

O=S1(=O)Oc2cc(O)ccc2-c2ccc(O)cc21 [Compound I-8]
expression level of IL-8 (IL-8): downregulating | number of inflammatory cells at the wound [1]: decreased | caudal fin area [2]: increased | expression level of TRPV1 (TRPV1): downregulating | LAMA5 gene expression (LAMA5): upregulate
